Legend:
ASK1/MAP3K5 = biological target: T1, ASK1/MAP3K5 (Homo sapiens, UniProt Q99683); assay: ASK1 enzyme assay (ASK1/MAP3K5 assay by Reaction Biology Corp., 33P-ATP filter-binding); format: biochemical; settings: 20 μM myelin basic protein and 10 μM ATP
T1 construct: purchased Reaction Biology Corp. (Malvern, Pa.)
T1 sequence (Q99683 1-1374): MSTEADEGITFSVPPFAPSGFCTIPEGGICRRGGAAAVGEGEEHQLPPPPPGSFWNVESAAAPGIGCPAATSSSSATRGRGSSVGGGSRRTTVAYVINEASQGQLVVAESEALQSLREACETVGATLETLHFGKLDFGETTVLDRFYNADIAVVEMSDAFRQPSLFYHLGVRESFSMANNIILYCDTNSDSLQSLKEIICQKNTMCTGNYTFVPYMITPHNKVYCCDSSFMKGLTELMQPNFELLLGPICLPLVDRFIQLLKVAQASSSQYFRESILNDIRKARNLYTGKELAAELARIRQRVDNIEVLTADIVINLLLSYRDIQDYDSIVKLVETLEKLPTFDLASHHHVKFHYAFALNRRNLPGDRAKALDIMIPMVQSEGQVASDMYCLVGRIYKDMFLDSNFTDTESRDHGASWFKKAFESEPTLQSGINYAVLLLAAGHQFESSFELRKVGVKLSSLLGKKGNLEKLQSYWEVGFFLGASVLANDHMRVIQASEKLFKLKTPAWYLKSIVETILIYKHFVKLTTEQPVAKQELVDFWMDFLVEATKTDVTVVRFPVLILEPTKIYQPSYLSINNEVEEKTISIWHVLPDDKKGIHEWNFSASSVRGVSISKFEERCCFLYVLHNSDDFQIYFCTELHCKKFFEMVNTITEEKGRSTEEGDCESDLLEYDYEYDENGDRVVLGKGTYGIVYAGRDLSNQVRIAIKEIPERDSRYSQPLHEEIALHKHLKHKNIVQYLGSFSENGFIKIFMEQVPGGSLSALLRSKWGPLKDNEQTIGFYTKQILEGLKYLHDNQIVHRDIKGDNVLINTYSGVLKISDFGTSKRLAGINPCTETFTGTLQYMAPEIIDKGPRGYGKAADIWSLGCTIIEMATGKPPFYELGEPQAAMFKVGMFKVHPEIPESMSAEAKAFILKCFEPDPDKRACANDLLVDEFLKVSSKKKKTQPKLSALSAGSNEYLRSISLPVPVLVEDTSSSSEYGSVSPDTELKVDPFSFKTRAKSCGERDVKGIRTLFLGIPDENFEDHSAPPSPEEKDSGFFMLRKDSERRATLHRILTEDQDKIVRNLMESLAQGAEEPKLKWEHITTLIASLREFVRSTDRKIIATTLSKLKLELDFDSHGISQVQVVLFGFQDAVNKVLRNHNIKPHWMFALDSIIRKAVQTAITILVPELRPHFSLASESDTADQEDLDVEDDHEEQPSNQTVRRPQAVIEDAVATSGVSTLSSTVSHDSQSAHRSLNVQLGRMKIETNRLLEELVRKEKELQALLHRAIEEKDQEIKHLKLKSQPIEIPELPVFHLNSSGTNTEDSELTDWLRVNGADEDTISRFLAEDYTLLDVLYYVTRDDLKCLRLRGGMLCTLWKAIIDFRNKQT
Method: The protein kinase inhibitory activity of the compounds described herein were tested using the ASK1/MAP3K5 assay by Reaction Biology Corp. (Malvern, Pa.). The assay procedure follows (and is also available on the Reaction Biology Corp. website). • Base Reaction Buffer: 20 mM Hepes (pH 7.5), 10 mM MgCl2, 1 mM EGTA, • 0.02% Brij35, 0.02 mg/mL BSA, 0.1 mM Na3VO4, 2 mM DTT, 1% DMSO; • Substrate: 20 μM of myelin basic protein (MBP) and 10 μM ATP; • Protein kinase: ASK1/MAP3K5. • Reaction Procedure: • 1. Prepare indicated substrate in freshly prepared Base Reaction Buffer. • 2. Deliver any required cofactors to the substrate solution. • 3. Deliver indicated kinase into the substrate solution and gently mix. • 4. Deliver compounds in DMSO into the kinase reaction mixture by Acoustic; technology (Echo550; nanoliter range), incubate for 20 minutes at room temperature. • 5. Deliver ^33P-ATP (specific activity 10 μCi/μL) into the reaction mixture to initiate the reaction. • 6. Incubate kinase reaction for 2 hours at room temperature. • 7. Reactions are spotted onto P81 ion exchange paper. • 8. Detect kinase activity by filter-binding method.

[1] = biological target: T2, ASK1 T838 auto phosphorylation (Homo sapiens, UniProt Q99683); assay: ASK1 (AUTO PHOS T838) assay in HEK-293T cells, MSD format; format: cell-based; settings: HEK-293T cells transfected with ASK1-V5, 1 hr compound incubation
T2 construct: ASK1-V5 tagged full length plasmid; expressed in transfected cells; host or cells: HEK-293T
T2 sequence (Q99683 1-1374): T1 sequence (Q99683 1-1374)
Method: ASK1 T838 auto phosphorylation was measured in HEK-293T cells using MSD assay format. HEK 293T cells were seeded in 15 cm plates at a density of 18 million cells and 20 mL DMEM with 10% FBS, Pen/Strep media. The plates were incubated at 37° C. overnight. Media on plates was changed to OPTI-MEM, serum free media and cells were transfected with 9 μg of ASK1-V5 tagged full length plasmid using Lipofectamine 2000 (Invitrogen) and the plates were incubated at 37° C. overnight. Cells were trypsinized, counted on Nexcellometer and plated into 96 well tissue culture plates with 100,000 cells/well and 200 μL media. Cells were incubated for 4 hr at 37° C. then ASK1 compounds were added using a HP 300e. Compounds were tested at 20 μM with 3 fold, 10 point dilution points then incubated for 1 hr at 37° C. A lysis buffer (Cell Signaling) was prepared with protease and phosphatase inhibitor and maintained at 4° C. until use. Media from cells was discarded and 120 μL of cold lysis buffer was added to the cells, the plate was shaken 4° C. for 1 hr. Lysate was mixed using Apricot liquid handler; aspirating up and down 16 times at high speed using 50 μL volume. 50 μL of cell lysates were transferred to a pre-coated MSD plates containing mouse anti-V5 antibody (1:500 dilution) and washed 3× with MSD wash buffer (TBST) and blocked with a 3% BSA solution. Plates were then incubated on a plate shaker overnight at 4° C. Plates were washed 3× with MSD wash buffer and 50 μL of rabbit anti-pASK1 T838 antibody was added to the wells and incubated for 2 hr at room temperature on a plate shaker. Plates were then washed and 50 μL of goat anti-rabbit sulfa-tag (1:500 dilution) was added to wells, and incubated for 1 hr at room temperature on a plate shaker. Plates were washed 3× and 150 μL of 2×MSD Read buffer was added to wells. Plates were immediately read on a MSD Instrument Reader where chemoluminecense signal was measured. Data was analyzed using Graph Pad or Genedata, the data was normalized and plotted, % activity versus log of compound concentration. The IC50 values were obtained from a 4 parameter fit.

Row | Structure (SMILES) | IC50 (ASK1/MAP3K5; class symbols) [nM] | IC50 ([1]; class symbols) [nM] | IC50 (ASK1/MAP3K5) [nM] | IC50 [1] [nM]
1 | C[C@H]1CCCOc2ncc(N3CC4CC(C3)O4)cc2C(=O)Nc2cccc(n2)-c2nncn21 [Compound 8, (10S)-5^5-(6-Oxa-3-azabicyclo[3.1.1]heptan-3-yl)-10-methyl-1^4H-6-oxa-3-aza-2(2,6),5(3,2)-dipyridina-1(3,4)-triazolacyclodecaphan-4-one] | ≤ 100 | ≤ 100 | – | –
2 | C[C@@H]1CCCOc2ncc(C(F)(F)F)cc2C(=O)Nc2cccc(n2)-c2nncn21 (single isomer, unassigned) [Compound 42] | – | – | ≥ 10000 | ≥ 10000
3 | C[C@H]1CCCOc2ncc(C3=CCN(C)CC3)cc2C(=O)Nc2cccc(n2)-c2nncn21 [Compound 15, (S)-10-Methyl-5^5-(1-methyl-1,2,3,6-tetrahydropyridin-4-yl)-1^4H-6-oxa-3-aza-2(2,6),5(3,2)-dipyridina-1(3,4)-triazolacyclodecaphan-4-one] | ≤ 100 | ≤ 100 | – | –
4 | C[C@H]1CCCOc2ncc(-n3cnc(C4CC4)c3)cc2C(=O)Nc2cccc(n2)-c2nncn21 (single isomer, unassigned) [Compound 32] | ≤ 100 | ≤ 100 | – | –
5 | C[C@@H]1CCCOc2ncc(-c3cnn(CCN(C)C)c3)cc2C(=O)Nc2cccc(n2)-c2nncn21 [Compound 24, (R)-5^5-(1-(2-(Dimethylamino)ethyl)-1H-pyrazol-4-yl)-10-methyl-1^4H-6-oxa-3-aza-2(2,6),5(3,2)-dipyridina-1(3,4)-triazolacyclodecaphan-4-one] | 1000 to 10000 | 1000 to 10000 | – | –
6 | C[C@H]1CCCOc2ncc(C3CN(C)C3)cc2C(=O)Nc2cccc(n2)-c2nncn21 [Compound 47, (S)-10-Methyl-5^5-(1-methylazetidin-3-yl)-1^4H-6-oxa-3-aza-2(2,6),5(3,2)-dipyridina-1(3,4)-triazolacyclodecaphan-4-one] | ≤ 100 | 100 to 1000 | – | –
7 | C[C@H]1CCCOc2ncc(OCCN(C)C)cc2C(=O)Nc2cccc(n2)-c2nncn21 [Compound 44, (S)-5^5-(2-(Dimethylamino)ethoxy)-10-methyl-1^4H-6-oxa-3-aza-2(2,6),5(3,2)-dipyridina-1(3,4)-triazolacyclodecaphan-4-one] | ≤ 100 | ≤ 100 | – | –
8 | C[C@@H]1CCCOc2ncccc2C(=O)Nc2cccc(n2)-c2nncn21 (single isomer, unassigned) [Compound 5] | 1000 to 10000 | – | – | ≥ 10000
9 | C[C@H]1CCCOc2ncc(-c3cnccn3)cc2C(=O)Nc2cccc(n2)-c2nncn21 [Compound 22, (S)-10-Methyl-5^5-(pyrazin-2-yl)-1^4H-6-oxa-3-aza-2(2,6),5(3,2)-dipyridina-1(3,4)-triazolacyclodecaphan-4-one] | ≤ 100 | ≤ 100 | – | –

Now from value to compound:

Row | IC50 (ASK1/MAP3K5; class symbols) [nM] | IC50 ([1]; class symbols) [nM] | IC50 (ASK1/MAP3K5) [nM] | IC50 [1] [nM] | Structure (SMILES)
10 | ≤ 100 | ≤ 100 | – | – | C[C@H]1CCCOc2ncc(N3CCOCC3)cc2C(=O)Nc2cccc(n2)-c2nncn21 [Compound 7, (S)-10-Methyl-5^5-morpholino-1^4H-6-oxa-3-aza-2(2,6),5(3,2)-dipyridina-1(3,4)-triazolacyclodecaphan-4-one]
11 | ≤ 100 | ≤ 100 | – | – | C[C@H]1CCCOc2ncc(-c3cncn3C)cc2C(=O)Nc2cccc(n2)-c2nncn21 [Compound 28, (S)-10-Methyl-5^5-(1-methyl-1H-imidazol-5-yl)-1^4H-6-oxa-3-aza-2(2,6),5(3,2)-dipyridina-1(3,4)-triazolacyclodecaphan-4-one]
12 | ≤ 100 | 100 to 1000 | – | – | Cc1cncn1-c1cnc2c(c1)C(=O)Nc1cccc(n1)-c1nncn1[C@@H](C)CCCO2 (single isomer, unassigned) [Compound 31]
13 | ≤ 100 | ≤ 100 | – | – | C[C@@H]1CN(c2cnc3c(c2)C(=O)Nc2cccc(n2)-c2nncn2[C@@H](C)CCCO3)CCN1C (single isomer, unassigned) [Compound 12]
14 | ≤ 100 | ≤ 100 | – | – | C[C@H]1CCCOc2ncc(C3COC3)cc2C(=O)Nc2cccc(n2)-c2nncn21 [Compound 45, (S)-10-Methyl-5^5-(oxetan-3-yl)-1^4H-6-oxa-3-aza-2(2,6),5(3,2)-dipyridina-1(3,4)-triazolacyclodecaphan-4-one]
15 | ≤ 100 | 100 to 1000 | – | – | C[C@H]1CCCOc2ncc(-n3cncc3C3CC3)cc2C(=O)Nc2cccc(n2)-c2nncn21 (single isomer, unassigned) [Compound 33]
16 | ≤ 100 | ≤ 100 | – | – | Cc1cn(-c2cnc3c(c2)C(=O)Nc2cccc(n2)-c2nncn2[C@@H](C)CCCO3)cn1 (single isomer, unassigned) [Compound 30]
17 | ≤ 100 | ≤ 100 | – | – | C[C@H]1CCCOc2ncc(C3CN(C(=O)OC(C)(C)C)C3)cc2C(=O)Nc2cccc(n2)-c2nncn21 [Compound 46, tert-Butyl (S)-3-(10-methyl-4-oxo-1^4H-6-oxa-3-aza-2(2,6),5(3,2)-dipyridina-1(3,4)-triazolacyclodecaphane-5^5-yl)azetidine-1-carboxylate]
18 | ≤ 100 | 100 to 1000 | – | – | C[C@H]1CCCOc2ncc(C(C)(C)O)cc2C(=O)Nc2cccc(n2)-c2nncn21 [Compound 39, (S)-5^5-(2-Hydroxypropan-2-yl)-10-methyl-1^4H-6-oxa-3-aza-2(2,6),5(3,2)-dipyridina-1(3,4)triazolacyclodecaphan-4-one]
19 | ≤ 100 | 100 to 1000 | – | – | C[C@H]1CN(c2cnc3c(c2)C(=O)Nc2cccc(n2)-c2nncn2[C@@H](C)CCCO3)CCN1C (single isomer, unassigned) [Compound 13]
